In the supplement of paper PMC10307832:

Assays:
Experiment in all cases: relative viability (nuclei count vs DMSO), 5 days (fraction); higher = more cells survive
NCI-H2085 = system: NCI-H2085
Method in brief: (§1)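 Five library-drug doses in √10 steps were combined with a fixed anchor-drug dose, or a single drug was given alone, by pin tool to lung cancer cell lines in 1536-well plates the day after seeding. Nuclei were stained and counted after 5 days. Relative viability is the nuclei count in treated wells over that in vehicle wells, taken as the median of duplicate plates.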

NCI-H2023 = system: NCI-H2023
Method in brief: as §1

NCI-H3122 = system: NCI-H3122
Method in brief: as §1

NCI-H520 = system: NCI-H520
Method in brief: as §1

EPLC-272H = system: EPLC-272H
Method in brief: as §1

NCI-H1650 = system: NCI-H1650
Method in brief: as §1

COR-L23 = system: COR-L23
Method in brief: as §1

HCC-44 = system: HCC-44
Method in brief: as §1

NCI-H441 = system: NCI-H441
Method in brief: as §1

NCI-H2170 = system: NCI-H2170
Method in brief: as §1

EKVX = system: EKVX
Method in brief: as §1

NCI-H1734 = system: NCI-H1734
Method in brief: as §1

ABC-1 = system: ABC-1
Method in brief: as §1

NCI-H2347 = system: NCI-H2347
Method in brief: as §1

RERF-LC-KJ = system: RERF-LC-KJ
Method in brief: as §1

201T = system: 201T
Method in brief: as §1

PC-14 = system: PC-14
Method in brief: as §1

NCI-H2405 = system: NCI-H2405
Method in brief: as §1

NCI-H1993 = system: NCI-H1993
Method in brief: as §1

NCI-H1563 = system: NCI-H1563
Method in brief: as §1

NCI-H647 = system: NCI-H647
Method in brief: as §1

LOU-NH91 = system: LOU-NH91
Method in brief: as §1

NCI-H1793 = system: NCI-H1793
Method in brief: as §1

C[C@@H]1CN(CC(=O)Nc2ccc3c(c2)Cc2cccc(-c4cc(=O)cc(N5CCOCC5)o4)c2S3)C[C@H](C)O1 + CS(=O)(=O)N1CCN(Cc2cc3nc(-c4cccc5[nH]ncc45)nc(N4CCOCC4)c3s2)CC1 [Pictilisib] (partner 1 µM)
relative viability (NCI-H2085; first compound 0.04 µM): 0.476
relative viability (NCI-H2085; first compound 0.1265 µM): 0.484
relative viability (NCI-H2085; first compound 0.4 µM): 0.425
relative viability (NCI-H2085; first compound 4 µM): 0.492
relative viability (NCI-H2023; first compound 0.04 µM): 0.115
relative viability (NCI-H2023; first compound 0.1265 µM): 0.262
relative viability (NCI-H2023; first compound 0.4 µM): 0.197
relative viability (NCI-H2023; first compound 4 µM): 0.198
relative viability (NCI-H3122; first compound 0.04 µM): 0.656
relative viability (NCI-H3122; first compound 0.1265 µM): 0.532
relative viability (NCI-H3122; first compound 0.4 µM): 0.513
relative viability (NCI-H3122; first compound 4 µM): 0.472
relative viability (NCI-H520; first compound 0.04 µM): 0.329
relative viability (NCI-H520; first compound 0.1265 µM): 0.281
relative viability (NCI-H520; first compound 0.4 µM): 0.31
relative viability (NCI-H520; first compound 4 µM): 0.374
relative viability (EPLC-272H; first compound 0.04 µM): 0.272
relative viability (EPLC-272H; first compound 0.1265 µM): 0.305
relative viability (EPLC-272H; first compound 0.4 µM): 0.3
relative viability (EPLC-272H; first compound 4 µM): 0.289
relative viability (NCI-H1650; first compound 0.04 µM): 0.32
relative viability (NCI-H1650; first compound 0.1265 µM): 0.605
relative viability (NCI-H1650; first compound 0.4 µM): 0.651
relative viability (NCI-H1650; first compound 4 µM): 0.621
relative viability (COR-L23; first compound 0.04 µM): 0.854
relative viability (COR-L23; first compound 0.1265 µM): 0.785
relative viability (COR-L23; first compound 0.4 µM): 0.745
relative viability (COR-L23; first compound 4 µM): 0.755
relative viability (HCC-44; first compound 0.04 µM): 0.616
relative viability (HCC-44; first compound 0.1265 µM): 0.573
relative viability (HCC-44; first compound 0.4 µM): 0.465
relative viability (HCC-44; first compound 4 µM): 0.287
relative viability (NCI-H441; first compound 0.04 µM): 0.526
relative viability (NCI-H441; first compound 0.1265 µM): 0.447
relative viability (NCI-H441; first compound 0.4 µM): 0.43
relative viability (NCI-H441; first compound 4 µM): 0.372
relative viability (NCI-H2170; first compound 0.1265 µM): 0.343
relative viability (NCI-H2170; first compound 0.4 µM): 0.274
relative viability (NCI-H2170; first compound 4 µM): 0.339
relative viability (EKVX; first compound 0.04 µM): 0.412
relative viability (EKVX; first compound 0.1265 µM): 0.444
relative viability (EKVX; first compound 0.4 µM): 0.414
relative viability (EKVX; first compound 4 µM): 0.428
relative viability (NCI-H1734; first compound 0.04 µM): 0.526
relative viability (NCI-H1734; first compound 0.1265 µM): 0.489
relative viability (NCI-H1734; first compound 0.4 µM): 0.468
relative viability (NCI-H1734; first compound 4 µM): 0.487
relative viability (ABC-1; first compound 0.1265 µM): 0.69
relative viability (ABC-1; first compound 0.4 µM): 0.636
relative viability (ABC-1; first compound 4 µM): 0.854
relative viability (NCI-H2347; first compound 0.04 µM): 0.961
relative viability (NCI-H2347; first compound 0.1265 µM): 0.577
relative viability (NCI-H2347; first compound 0.4 µM): 0.747
relative viability (NCI-H2347; first compound 4 µM): 0.313
relative viability (RERF-LC-KJ; first compound 0.04 µM): 0.591
relative viability (RERF-LC-KJ; first compound 0.1265 µM): 0.531
relative viability (RERF-LC-KJ; first compound 0.4 µM): 0.523
relative viability (RERF-LC-KJ; first compound 4 µM): 0.487
relative viability (201T; first compound 0.04 µM): 0.668
relative viability (201T; first compound 0.1265 µM): 0.65
relative viability (201T; first compound 0.4 µM): 0.652
relative viability (201T; first compound 4 µM): 0.647
relative viability (PC-14; first compound 0.04 µM): 0.685
relative viability (PC-14; first compound 0.1265 µM): 0.629
relative viability (PC-14; first compound 0.4 µM): 0.687
relative viability (PC-14; first compound 4 µM): 0.588
relative viability (NCI-H2405; first compound 0.04 µM): 0.414
relative viability (NCI-H2405; first compound 0.1265 µM): 0.461
relative viability (NCI-H2405; first compound 0.4 µM): 0.358
relative viability (NCI-H2405; first compound 4 µM): 0.406
relative viability (NCI-H1993; first compound 0.04 µM): 0.76
relative viability (NCI-H1993; first compound 0.1265 µM): 0.927
relative viability (NCI-H1993; first compound 0.4 µM): 0.994
relative viability (NCI-H1993; first compound 4 µM): 0.912
relative viability (NCI-H1563; first compound 0.04 µM): 0.616
relative viability (NCI-H1563; first compound 0.1265 µM): 0.661
relative viability (NCI-H1563; first compound 0.4 µM): 0.702
relative viability (NCI-H1563; first compound 4 µM): 0.711
relative viability (NCI-H647; first compound 0.04 µM): 0.258
relative viability (NCI-H647; first compound 0.1265 µM): 0.397
relative viability (NCI-H647; first compound 0.4 µM): 0.204
relative viability (NCI-H647; first compound 4 µM): 0.393
relative viability (LOU-NH91; first compound 0.04 µM): 0.554
relative viability (LOU-NH91; first compound 0.1265 µM): 0.529
relative viability (LOU-NH91; first compound 0.4 µM): 0.505
relative viability (LOU-NH91; first compound 4 µM): 0.539
relative viability (NCI-H1793; first compound 0.04 µM): 0.374
relative viability (NCI-H1793; first compound 0.1265 µM): 0.297
relative viability (NCI-H1793; first compound 0.4 µM): 0.346
relative viability (NCI-H1793; first compound 4 µM): 0.335

CC(C)Oc1cc(Nc2nc(N[C@@H](C)c3ccc(F)cn3)ncc2Cl)n[nH]1 [AZ23] + CS(=O)(=O)CCNCc1ccc(-c2ccc3ncnc(Nc4ccc(OCc5cccc(F)c5)c(Cl)c4)c3c2)o1 [Lapatinib] (partner 2 µM)
relative viability (NCI-H2085; first compound 0.01 µM): 0.771
relative viability (NCI-H2085; first compound 0.03162 µM): 0.735
relative viability (NCI-H2085; first compound 0.3162 µM): 0.772
relative viability (NCI-H2023; first compound 0.03162 µM): 0.945
relative viability (NCI-H2023; first compound 0.3162 µM): 0.929
relative viability (NCI-H3122; first compound 0.01 µM): 1.08
relative viability (NCI-H3122; first compound 0.03162 µM): 1.01
relative viability (NCI-H3122; first compound 0.3162 µM): 1.04
relative viability (NCI-H520; first compound 0.01 µM): 0.842
relative viability (NCI-H520; first compound 0.03162 µM): 0.964
relative viability (NCI-H520; first compound 0.3162 µM): 0.8
relative viability (EPLC-272H; first compound 0.01 µM): 0.885
relative viability (EPLC-272H; first compound 0.03162 µM): 1.16
relative viability (NCI-H1650; first compound 0.01 µM): 0.762
relative viability (NCI-H1650; first compound 0.03162 µM): 0.922
relative viability (NCI-H1650; first compound 0.3162 µM): 0.54
relative viability (COR-L23; first compound 0.01 µM): 1.12
relative viability (COR-L23; first compound 0.03162 µM): 1.1
relative viability (COR-L23; first compound 0.3162 µM): 1
relative viability (HCC-44; first compound 0.01 µM): 1.01
relative viability (HCC-44; first compound 0.03162 µM): 1.21
relative viability (HCC-44; first compound 0.3162 µM): 1.09
relative viability (NCI-H2170; first compound 0.01 µM): 0.267
relative viability (NCI-H2170; first compound 0.03162 µM): 0.283
relative viability (NCI-H2170; first compound 0.3162 µM): 0.27
relative viability (EKVX; first compound 0.01 µM): 0.188
relative viability (EKVX; first compound 0.03162 µM): 0.207
relative viability (EKVX; first compound 0.3162 µM): 0.192
relative viability (NCI-H1734; first compound 0.01 µM): 1.27
relative viability (NCI-H1734; first compound 0.03162 µM): 1.23
relative viability (NCI-H1734; first compound 0.3162 µM): 1.11
relative viability (ABC-1; first compound 0.01 µM): 1.15
relative viability (ABC-1; first compound 0.03162 µM): 1.24
relative viability (ABC-1; first compound 0.3162 µM): 1.17
relative viability (NCI-H2347; first compound 0.01 µM): 1.05
relative viability (NCI-H2347; first compound 0.03162 µM): 1.02
relative viability (NCI-H2347; first compound 0.3162 µM): 1.02
relative viability (RERF-LC-KJ; first compound 0.01 µM): 0.965
relative viability (RERF-LC-KJ; first compound 0.03162 µM): 1.15
relative viability (RERF-LC-KJ; first compound 0.3162 µM): 0.881
relative viability (201T; first compound 0.01 µM): 1.03
relative viability (201T; first compound 0.03162 µM): 1
relative viability (201T; first compound 0.3162 µM): 1.1
relative viability (PC-14; first compound 0.01 µM): 0.351
relative viability (PC-14; first compound 0.03162 µM): 0.404
relative viability (PC-14; first compound 0.3162 µM): 0.348
relative viability (NCI-H2405; first compound 0.01 µM): 1
relative viability (NCI-H2405; first compound 0.03162 µM): 1.16
relative viability (NCI-H2405; first compound 0.3162 µM): 0.943
relative viability (NCI-H1993; first compound 0.01 µM): 0.808
relative viability (NCI-H1993; first compound 0.3162 µM): 0.946
relative viability (NCI-H1563; first compound 0.01 µM): 0.915
relative viability (NCI-H1563; first compound 0.03162 µM): 1.06
relative viability (NCI-H1563; first compound 0.3162 µM): 0.921
relative viability (NCI-H647; first compound 0.01 µM): 1.71
relative viability (NCI-H647; first compound 0.03162 µM): 1.27
relative viability (NCI-H647; first compound 0.3162 µM): 1.34
relative viability (LOU-NH91; first compound 0.01 µM): 0.674
relative viability (LOU-NH91; first compound 0.03162 µM): 0.787
relative viability (LOU-NH91; first compound 0.3162 µM): 0.716
relative viability (NCI-H1793; first compound 0.01 µM): 0.367
relative viability (NCI-H1793; first compound 0.03162 µM): 0.804
relative viability (NCI-H1793; first compound 0.3162 µM): 0.486
